The values that follow come from patent US10976312B2, “Compositions and methods for capture of cellular targets of bioactive agents” (Promega Corporation, priority 2012, dated 2021).

What all share (assay type): cell-based
For assay [1], the target named is T1, NANOLUC-DHFR fusion (Homo sapiens, UniProt P00374).
T1 construct: expressed in transfected cells; host or cells: HEK293
T1 sequence (P00374 1-187): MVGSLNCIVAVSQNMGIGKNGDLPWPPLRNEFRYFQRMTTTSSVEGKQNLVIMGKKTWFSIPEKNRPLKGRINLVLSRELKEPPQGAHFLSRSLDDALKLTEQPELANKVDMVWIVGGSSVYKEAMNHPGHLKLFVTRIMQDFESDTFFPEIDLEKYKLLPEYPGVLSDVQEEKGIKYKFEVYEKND
In words: Binding affinity to DHFR in live cells using BRET. The following applies: HEK293 live cells, 1 μM PBI-4890 tracer, 2 h. As for the experimental part:
Binding affinity to DHFR in live cells was tested using BRET. HEK293 cells in wells of a 96-well plate were transfected using PEI with plasmid DNA encoding a NANOLUC-DHFR fusion. The DNA was diluted 1:50 with a promoterless carrier DNA plasmid (PSI) to a final concentration of 80 ng total DNA per well. Twenty-four hours post-transfection, cells were serum starved for additional 24 hours and then treated with serially diluted PBI-4848 or PBI-5015 in the presence of 1 μM PBI-4890 (TOM-methotrexate derivative). After two hours of equilibrium binding, furimazine (a coelenterazine derivative; Promega Corp.) was added to a final concentration of 20 μM, and BRET measured on a Varioskan luminometer.
(Bioluminescence resonance energy transfer reports proximity on the nanometre scale.)

Assay [2] addresses T1, NANOLUC-DHFR fusion. The experiment in a line: Pull-down of NANOLUC:DHFR from live HEK293 cells onto HALOTAG protein beads. To be noted: 10 μM conjugate, release with 150 μM methotrexate. As for the experimental part:
The DNA was diluted 1:50 with a promoterless carrier DNA plasmid (PSI) to a final concentration of 80 ng total DNA per well. Twenty-four hours post-transfection, cells were serum starved for additional 24 h and then incubated with 10 μM PBI-4848 or PBI-5015 while control cells were not treated with the conjugated drug. Following equilibration binding of 2 h, the media was removed, and the cells quickly washed with PBS and lysed in detergent-based lysis buffer for 10 min. Cell lysates were then transferred to wells of a 96-well plate containing 0.5 μl settled paramagnetic HALOTAG protein beads and incubated with shaking for 45 min. Following binding, the unbound fraction was removed, the HALOTAG protein paramagnetic beads washed, 150 μM unconjugated methotrexate added, and the captured NANOLUC:DHFR specifically released from the beads by competition with the unconjugated methotrexate for 60 min. The released NANOLUC:DHFR (+PBI5015 or +PBI 4848) and control samples were detected by NANOGLO luciferase detection reagent.

Assay [3] has as its target T2, DHFR (Homo sapiens, UniProt P00374).
T2 construct: isolate, e.g., pull-down, endogenous targets from cells; endogenous in cells; host or cells: HEK293
T2 sequence (P00374 1-187): T1 sequence (P00374 1-187)
In words: Endogenous target pull-down from HEK293 cells, western blot and mass spec (Example 7). The following applies: 10 uM conjugate, listed as Methotrexate-CA. The protocol:
HEK293 cells were plated into wells of a 6-well plate (2.5×10^5 cells/well). 48 hours post plating, a final concentration of 10 uM of Methotrexate chloroalkane (PBI-5015) was added to 2 wells while control cells were not treated with the drug conjugate. Following equilibrium binding for 2 h, the media was removed, and the cells quickly washed with PBS and lysed in detergent-based lysis buffer for 10 min. Cell lysates were then transferred to an Eppendorf® tube containing 12.5 ul of settled paramagnetic HALOTAG protein beads and incubated with shaking for 15 min. Following binding, the unbound fraction was removed, the HALOTAG paramagnetic beads washed 3×, and the captured targets specifically released from the beads by competition with 150 μM unconjugated methotrexate for 60 mins. The released targets were subjected to mass spec analysis as well as western blot analysis using an anti-DHFR antibody (Sigma).
In general terms: Immunoblotting shows a protein as a band on a membrane.

Assay [4] relates to intracellular HDAC activity. In words: Intracellular HDAC activity, non-lytic HDAC-Glo I/II assay, HEK293 and K562 cells (Example 10). The following applies: 2 hours treatment, relative to SAHA. The protocol: HEK293 cells were plated in a 96-well plate at 1×10^5 cell/ml in DMEM+10% serum, and 24 hours later, the media was replaced with serum free DMEM media. K562 cells were plated in serum free RPMI 1640 media into wells of a 96-well plate at 2×10^5 cells/ml. Cells were treated with serial dilutions of SAHA or PBI-5040 (SAHA-chloroalkane) for 2 hours and then tested for intracellular HDAC activity using the non-lytic HDAC-Glo™ I/II assay (Promega Corporation) according to manufacturer's instructions. […] The ˜2-fold reduction in SAHA potency due to the chloroalkane modification indicates minimal impact of the chloroalkane on cellular permeability or potency.

The subject of assay [5] is intracellular HDAC activity. In words: Intracellular HDAC activity, non-lytic HDAC-Glo I/II assay, K562 cells (Example 12). To be noted: 2 hours treatment. As for the experimental part: K562 cells were plated in serum free RPMI 1640 media into wells of a 96-well plate at 2×10^5 cells/ml. Cells were then treated with serial dilution of SAHA, PBI-5040 (SAHA-chloroalkane) or PBI 5475 (SAHA-biotin) for 2 hours and then tested for intracellular HDAC activity using the non-lytic HDAC-Glo™ I/II assay (Promega Corporation) according to manufacturer's instructions.

For assay [6], the system named is HDAC1, HDAC2, HDAC3, HDAC6, HDAC8. The experiment in a line: Endogenous target pull-down from HEK293 cells, western blot and mass spec (Example 11). To be noted: 20 uM conjugate. As for the experimental part:
HEK293 cells were plated in 100 mm dishes at 2×10^5 cells/ml. Forty-eight hours post plating, a final concentration of 20 uM SAHA-chloroalkane (PBI-5040) was added to 3 of the dishes (1×10^7 cells/dish), while 3 other dishes were not treated with the conjugated drug (control). Following equilibrium binding for 2 hours, the media was removed, the cells quickly washed with PBS, lysed in a detergent-based lysis buffer for 10 minutes and centrifuged at 3000×g for 1 minute. The cleared lysates were than added to 75 ul of settled paramagnetic HALOTAG beads and incubated with shaking for 15 minutes. Following binding, the unbound fraction was removed, the HALOTAG paramagnetic beads were washed 3× (wash buffer—50 mM HEPES pH7.5, 150 mM NaCl and 0.01% IGEPAL), and the captured targets specifically released from the beads by competition with 400 μM unconjugated SAHA for 60 minutes. The released targets were subjected to mass spec analysis (FIG. 11B) as well as western blot analysis (FIG. 1-A) with anti HDAC1 antibody (ABCAM); anti HDAC2 antibody (ABCAM); anti HDAC6 antibody (Millipore); anti HDAC3 antibody (Thermo Fisher) and anti HDAC8 antibody (Rockland/Promega).

The test system is the same in assay [7]. In words: Endogenous target pull-down from K562 cells, western blot (Example 13). The following applies: 20 uM conjugate. The protocol:
K562 cells were plated in 150 mm dishes at 5×10^7 cells/dish. A final concentration of 20 uM SAHA chloroalkane (PBI-5040) or PBI-5475 (SAHA-biotin) was added to 2 dishes of cells while 2 other dishes of cells were not treated with the conjugated drug (control). Following equilibrium binding of 2 hours, the media was removed, the cells quickly washed with PBS and lysed in detergent-based lysis buffer for 10 minutes and centrifuged at 3000×g for 1 minute. The cleared lysates treated with PBI-5040, as well as the cleared lysates of the control cells, were added to 75 ul of settled paramagnetic HALTOG beads. The cleared lysates of the cells treated with PBI-5475, as well as the cleared lysate of the control cells, were added to 75 ul of settled paramagnetic Streptavidin beads (GE). Following 15 minutes of binding, the unbound fraction was removed, beads were washed 3×, and the captured targets specifically released from the beads by competition with 400 μM unconjugated SAHA for 60 minutes. The released targets were subjected to western blot analysis (FIG. 13) with anti HDAC1 antibody (ABCAM); anti HDAC2 antibody (ABCAM); anti HDAC6 antibody (Millipore); anti HDAC3 antibody (Thermo Fisher) and anti HDAC8 antibody (Rockland/Promega).

For `CN(Cc1cnc2nc(N)nc(N)c2n1)c1ccc(C(=O)NC(CCC(=O)NCCOCCOCCCCCCCl)C(=O)O)cc1` (stereo not shown) [PBI-4848], in assay [1], the “affinity to DHFR (dose-response BRET curves)” value is on record as “higher affinity to DHFR”.

With `CN(Cc1cnc2nc(N)nc(N)c2n1)c1ccc(C(=O)NC(CCC(=O)NCCCCCNC(=O)OCCOCCOCCOC(=O)NCCOCCOCCCCCCCl)C(=O)O)cc1` (stereo not shown) [PBI-5015], in assay [1], the “affinity to DHFR (dose-response BRET curves)” value was “lower affinity to DHFR”. Besides, the “pull-down of Nluc:DHFR fusion” value in assay [2] is “efficiently pulled down the Nluc:DHFR fusion”. The “pull-down of endogenous DHFR” value in assay [3] is recorded as “specific pull down of DHFR”.

`O=C(CCCCCCC(=O)Nc1ccc(CNC(=O)OCCOCCOCCOC(=O)NCCOCCOCCCCCCCl)cc1)NO` [PBI-5040]: the “reduction in SAHA potency due to the chloroalkane modification” value in assay [4] is listed as approximately 2 fold. Also, in assay [5], the “reduction in potency relative to SAHA” value is given as approximately 2 fold. The “pull-down of endogenous SAHA targets (HDACs)” value in assay [6] was “all known targets of SAHA, including low affinity target (HDAC8) and low abundance target (HDAC3), can be specifically pull down”; in assay [6] (listed as SAHA-CA) it was “specific pull down of all known targets”; in assay [7] (listed as SAHA-CA), “specific pull down of all known targets of SAHA”; in assay [7] (listed as SAHA-chloroalkane), “all known targets of SAHA, including a low affinity target (HDAC8) and a low abundance target (HDAC3), were specifically pulled down”.
